# Assay results published in paper PMC5845353, “The selective cathepsin K inhibitor MIV-711 attenuates joint pathology in experimental animal models of osteoarthritis” (Journal of Translational Medicine, 2018).
# Marks after values point to notes of the source that are not given here.
# System: rabbits subjected to anterior cruciate ligament transection (ACLT)
# Experiment: Rabbit ACLT study, µCT of trabecular bone
# Assay type: in vivo
# Text: The animals were acquired following review and approval by the Institutional Animal Care and Use Committee (IACUC) at Numira (Salt Lake City, UT). The protocol was also reviewed and approved by the IACUC at Ibex Preclinical Research Inc. (Logan, UT). Male, New Zealand White rabbits (n = 32) were purchased from the Western Oregon Rabbit Co. (Philomath, OR). The animals were approximately 9 months old, weighed 3.7–4.5 kg at the start of the experiment and were randomized into four treatment groups based on body weight.
# Pre-operative butorphanol (0.5–1.0 mg/kg, i.m.) for analgesia and glycopyrrolate (~ 0.1 mg/kg i.m.) were administered up to 15 min prior to induction. Anesthesia was induced by a mixture of ketamine (20–40 mg/kg, i.m.) and xylazine (5–10 mg/kg, i.m.), followed by placement of an endotracheal tube. General anesthesia was maintained with isoflurane. Perioperative cefazolin (40 mg/kg, i.v.) was administered, and […] (0.2 mg/kg, i.v.) was administered to reverse the effects of xylazine after endotracheal intubation was complete. A fentanyl patch (25 µg/h) was placed on a clipped area of the skin to provide post-operative analgesia. An incision of 1.5–2.5 cm was made in the skin over the medial side of the right knee under aseptic conditions. The patella was dislocated laterally and the knee placed in full flexion. The anterior cruciate ligament (ACL) was visualized and transected with an appropriate blade. In sham animals, the ACL was visualized but not transected. The joint was irrigated with sterile saline and closed. The muscle and skin were closed with suture and/or surgical glue. Butorphanol (0.5–1 mg/kg, i.m.) was administered after extubation to provide supplemental analgesia. The animals were then individually housed in stainless steel or plastic cages.
# Starting 1 week after sham operation or ACLT, animals were dosed daily for 7 weeks by oral gavage with either MIV-711 (synthesized by Medivir and given as a suspension in 1% Methocel A4C in water) or vehicle (1% Methocel A4C in water) at a dose volume of 4 mL/kg. The four treatment groups (n = 7 in each group) were: (1) sham + vehicle; (2) ACLT + vehicle; (3) ACLT + MIV-711, 30 µmol/kg (low dose) and (4) ACLT + MIV-711, 100 µmol/kg (high dose).
# Femora and tibias from all animals were subjected to µCT scanning without and with contrast reagent, to visualize bone and cartilage, respectively. Samples were scanned on a high-resolution, volumetric µCT scanner (μCT40, ScanCo Medical, Zurich, CH). The image data was acquired with the following parameters: 36 μm isotropic voxel resolution at 300 ms exposure time, 2000 views and 1 frame per view. Each sample was scanned twice, once for acquiring bone data and once for soft tissue data. After the bone scans, the knees were stained using hexabrix for contrast-enhanced imaging of the cartilage. The µCT-generated DICOM files were used to analyze the samples and to create volume renderings of the regions of interest (ROI). The raw data files were converted into a file format compatible with the segmentation software VHLab (Numira). VHLab was used for segmenting out the regions of interest (osteophyte, cartilage, and subchondral bone) for the femur and tibia of each sample. A region spanning 9 mm of the articulating surface of the femur and 6.5 mm of the tibia was selected for segmenting out the cartilage and subchondral bone in the anterior–posterior direction. After the segmentation process, the voxel count associated with each of the regions of interest was calculated using VHLab. The voxel count was then multiplied by the cubic voxel resolution to obtain volume measurements for the different ROI. Cartilage thickness was calculated using SCIRun (Scientific Computing and Imaging Institute, University of Utah). The distance from the bone to the outer surface of the articulating cartilage was calculated. An image was generated that translates the distances into a color map for viewing the thickness along the length of the cartilage. […]
# [1] = Femur Lateral, high dose 100 µmol/kg
# [2] = Femur Lateral, low dose 30 µmol/kg
# [3] = Femur Medial, high dose 100 µmol/kg
# [4] = Femur Medial, low dose 30 µmol/kg
# [5] = Tibia Lateral, high dose 100 µmol/kg
# [6] = Tibia Lateral, low dose 30 µmol/kg
# [7] = Tibia Medial, high dose 100 µmol/kg
# [8] = Tibia Medial, low dose 30 µmol/kg
compound,measurement,setting,value
C#C[C@@H]1CN(C(=O)[C@H](CC(C)C)NC(=O)c2ccc(-c3nc(N4CCN(C)CC4)sc3F)cc2)[C@@H]2C(=O)CO[C@H]12 [MIV-711],Bone surface,[1],101.7 ± 2.9 mm^2
same,Bone surface/volume,[1],18.7 ± 0.8 1/mm
same,Connective density,[1],11.90 ± 1.51 1/mm^3
same,Structure model index,[1],0.63 ± 0.11
same,Tissue mineral density,[1],673.6 ± 7.0 mgHA/ccm
same,Trabecular bone volume,[1],5.5 ± 0.2 mm^3
same,Trabecular number,[1],2.55 ± 0.10 1/mm
same,Trabecular separation,[1],0.40 ± 0.02 mm
same,Trabecular thickness,[1],0.19 ± 0.01 mm
same,Bone surface,[2],101.2 ± 4.3 mm^2
same,Bone surface/volume,[2],19.9 ± 1.3 1/mm
same,Connective density,[2],13.51 ± 1.54 1/mm^3
same,Structure model index,[2],0.73 ± 0.15
same,Tissue mineral density,[2],669.6 ± 8.4 mgHA/ccm
same,Trabecular bone volume,[2],5.3 ± 0.5 mm^3
same,Trabecular number,[2],2.58 ± 0.16 1/mm
same,Trabecular separation,[2],0.40 ± 0.03 mm
same,Trabecular thickness,[2],0.18 ± 0.01 mm
same,Bone surface,[3],105.2 ± 1.3 mm^2
same,Bone surface/volume,[3],15.1 ± 1.0 1/mm
same,Connective density,[3],9.14 ± 0.63 1/mm^3
same,Structure model index,[3],0.40 ± 0.07
same,Tissue mineral density,[3],699.1 ± 10.3 mgHA/ccm
same,Trabecular bone volume,[3],7.2 ± 0.5 mm^3
same,Trabecular number,[3],3.71 ± 0.68 1/mm
same,Trabecular separation,[3],0.30 ± 0.03 mm
same,Trabecular thickness,[3],0.22 ± 0.02 mm
same,Bone surface,[4],105.6 ± 3.8 mm^2
same,Bone surface/volume,[4],16.0 ± 1.6 1/mm
same,Connective density,[4],11.42 ± 1.61 1/mm^3
same,Structure model index,[4],0.48 ± 0.07
same,Tissue mineral density,[4],698.4 ± 15.7 mgHA/ccm
same,Trabecular bone volume,[4],7.0 ± 0.7 mm^3
same,Trabecular number,[4],3.02 ± 0.20 1/mm
same,Trabecular separation,[4],0.34 ± 0.02 mm
same,Trabecular thickness,[4],0.22 ± 0.03 mm
same,Bone surface,[5],152.7 ± 4.1 mm^2
same,Bone surface/volume,[5],14.9 ± 0.5 1/mm
same,Connective density,[5],16.25 ± 2.01 1/mm^3
same,Structure model index,[5],0.42 ± 0.11
same,Tissue mineral density,[5],707.0 ± 6.6 mgHA/ccm
same,Trabecular bone volume,[5],10.3 ± 0.4* mm^3
same,Trabecular number,[5],3.01 ± 0.16 1/mm
same,Trabecular separation,[5],0.34 ± 0.02 mm
same,Trabecular thickness,[5],0.22 ± 0.01 mm
same,Bone surface,[6],153.6 ± 4.1 mm^2
same,Bone surface/volume,[6],16.0 ± 1.2 1/mm
same,Connective density,[6],16.55 ± 1.95 1/mm^3
same,Structure model index,[6],0.51 ± 0.12
same,Tissue mineral density,[6],700.8 ± 10.6 mgHA/ccm
same,Trabecular bone volume,[6],9.9 ± 0.7 mm^3
same,Trabecular number,[6],2.96 ± 0.15 1/mm
same,Trabecular separation,[6],0.34 ± 0.02 mm
same,Trabecular thickness,[6],0.21 ± 0.01 mm
same,Bone surface,[7],124.9 ± 4.6 mm^2
same,Bone surface/volume,[7],13.2 ± 0.2 1/mm
same,Connective density,[7],8.47 ± 0.69 1/mm^3
same,Structure model index,[7],0.41 ± 0.10
same,Tissue mineral density,[7],726.9 ± 5.5 mgHA/ccm
same,Trabecular bone volume,[7],9.5 ± 0.5 mm^3
same,Trabecular number,[7],2.09 ± 0.15 1/mm
same,Trabecular separation,[7],0.50 ± 0.04 mm
same,Trabecular thickness,[7],0.26 ± 0.00 mm
same,Bone surface,[8],124.9 ± 3.3 mm^2
same,Bone surface/volume,[8],14.6 ± 1.2 1/mm
same,Connective density,[8],9.20 ± 1.08 1/mm^3
same,Structure model index,[8],0.52 ± 0.16
same,Tissue mineral density,[8],714.1 ± 13.1 mgHA/ccm
same,Trabecular bone volume,[8],8.9 ± 0.7 mm^3
same,Trabecular number,[8],2.05 ± 0.08 1/mm
same,Trabecular separation,[8],0.49 ± 0.02 mm
same,Trabecular thickness,[8],0.25 ± 0.02 mm
same,"trabecular bone volume, lateral tibia, difference vs. sham",low dose 30 µmol/kg,-8%
